This passage reports EC50 results from US12612407B2, “Imidazo[2,1-f][1,2,4]triazin-4-amine derivatives as TLR7 agonist” (BEIGENE, LTD., priority 2020, dated 2026).

SMILES strings stand for the structures.

The assay deals with T1, human TLR7 (Homo sapiens, UniProt Q9NYK1).
T1 construct: host or cells: HEK293 (HEK-Blue hTLR7)
T1 sequence (Q9NYK1 27-1049): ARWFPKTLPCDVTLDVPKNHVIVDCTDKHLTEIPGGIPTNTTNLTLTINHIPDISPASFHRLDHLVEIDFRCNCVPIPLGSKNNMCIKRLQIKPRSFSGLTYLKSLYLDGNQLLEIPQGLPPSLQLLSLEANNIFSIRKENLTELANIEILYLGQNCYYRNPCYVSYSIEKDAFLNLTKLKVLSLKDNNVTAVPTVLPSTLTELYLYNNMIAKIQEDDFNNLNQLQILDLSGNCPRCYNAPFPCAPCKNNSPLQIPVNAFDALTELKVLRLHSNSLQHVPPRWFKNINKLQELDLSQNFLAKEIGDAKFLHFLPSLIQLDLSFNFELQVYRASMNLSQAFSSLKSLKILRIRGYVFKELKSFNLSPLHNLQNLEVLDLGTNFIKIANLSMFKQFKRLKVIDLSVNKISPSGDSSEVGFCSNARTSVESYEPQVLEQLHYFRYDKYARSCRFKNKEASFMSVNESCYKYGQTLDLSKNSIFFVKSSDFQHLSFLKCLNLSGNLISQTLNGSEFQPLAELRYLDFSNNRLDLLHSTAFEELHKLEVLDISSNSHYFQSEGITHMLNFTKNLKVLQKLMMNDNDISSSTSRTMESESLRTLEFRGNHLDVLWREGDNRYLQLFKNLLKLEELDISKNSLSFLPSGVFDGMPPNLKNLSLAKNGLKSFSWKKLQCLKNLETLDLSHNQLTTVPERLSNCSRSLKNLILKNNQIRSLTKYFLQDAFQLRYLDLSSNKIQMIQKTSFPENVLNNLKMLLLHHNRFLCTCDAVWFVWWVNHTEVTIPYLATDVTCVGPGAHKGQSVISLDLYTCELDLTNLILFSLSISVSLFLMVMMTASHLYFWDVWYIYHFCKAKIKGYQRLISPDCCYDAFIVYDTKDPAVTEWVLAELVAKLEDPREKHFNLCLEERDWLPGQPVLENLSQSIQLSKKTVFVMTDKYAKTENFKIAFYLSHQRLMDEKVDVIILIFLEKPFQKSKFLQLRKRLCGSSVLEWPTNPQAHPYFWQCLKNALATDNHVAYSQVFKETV
The assay is described as follows: HEK293-Blue hTLR7 Reporter Assay (QUANTI-BLUE, SEAP readout). It is filed as cell-based. The settings on record: HEK-Blue-hTLR7 cells, 24 hrs treatment, Table 1, B1-B232. Summed up: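 HEK-Blue-hTLR7 cells expressing NF-κB/AP-1-driven SEAP, 4×10^4 cells/well, treated 24 h at 37° C with increasing compound concentrations. Supernatant SEAP measured with Quanti-blue substrate (10-30 min, 37° C) at 620-655 nm; EC50 from sigmoidal dose-response fit.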
Compound `CCCCOc1nc(N)c2ncc(Cc3cnc(N4CCC(CN(C)C)CC4)c(C)c3)n2n1` [Compound B59, 2-butoxy-7-((6-(4-((dimethylamino)methyl)piperidin-1-yl)-5-methylpyridin-3-yl)methyl)imidazo[2,1-f][1,2,4]triazin-4-amine] had an EC50 of 20 nM.

With `CCCCOc1nc(N)c2ncc(Cc3cnc(N4CCC(N)CC4)c(C)c3)n2n1` [Compound B60, 7-((6-(4-aminopiperidin-1-yl)-5-methylpyridin-3-yl)methyl)-2-butoxyimidazo[2,1-f][1,2,4]triazin-4-amine], a half-maximal effect (EC50) was put at 50 nM. `CCCCOc1nc(N)c2ncc(Cc3ccc(N4CC(C)NC(C)C4)c(C)c3)n2n1` (centres unmarked) [Compound B61, 2-butoxy-7-(4-(3,5-dimethylpiperazin-1-yl)-3-methylbenzyl)imidazo[2,1-f][1,2,4]triazin-4-amine] showed an EC50 of 660 nM. Against the preceding compound, the EC50 is about 13-fold higher. In the case of `COc1nc(N)c2ncc(Cc3cnc(N4CCNCC4)c(C)c3)n2n1` [Compound B62, 2-methoxy-7-((5-methyl-6-(piperazin-1-yl)pyridin-3-yl)methyl)imidazo[2,1-f][1,2,4]triazin-4-amine], the concentration giving a half-maximal response (EC50) is more than 10000 nM. `CCOc1nc(N)c2ncc(Cc3cnc(N4CCNCC4)c(C)c3)n2n1` [Compound B63, 2-ethoxy-7-((5-methyl-6-(piperazin-1-yl)pyridin-3-yl)methyl)imidazo[2,1-f][1,2,4]triazin-4-amine]: the EC50 was 900 nM. With `CCCCOc1nc(N)c2ncc(Cc3ccc(C4CCNCC4)c(C)c3)n2n1` [Compound B64, 2-butoxy-7-(3-methyl-4-(piperidin-4-yl)benzyl)imidazo[2,1-f][1,2,4]triazin-4-amine], the EC50 was determined as 448 nM. This EC50 is about 2-fold lower than that of the compound before. With `CCCC(C)Oc1nc(N)c2ncc(Cc3cnc(N4CCNCC4)c(C)c3)n2n1` (centres unmarked) [Compound B65, 7-((5-methyl-6-(piperazin-1-yl)pyridin-3-yl)methyl)-2-(pentan-2-yloxy)imidazo[2,1-f][1,2,4]triazin-4-amine] the figure was 26 nM; with `Cc1cc(Cc2cnc3c(N)nc(OC(C)C)nn23)cnc1N1CCNCC1` [Compound B66, 2-isopropoxy-7-((5-methyl-6-(piperazin-1-yl)pyridin-3-yl)methyl)imidazo[2,1-f][1,2,4]triazin-4-amine], 146 nM; with `CCCCOc1nc(N)c2ncc(Cc3cnc(N4CCN(C(=O)[C@@H](N)[C@@H](C)CC)CC4)c(C)c3)n2n1` [Compound B67, (2S,3S)-2-amino-1-(4-(5-((4-amino-2-butoxyimidazo[2,1-f][1,2,4]triazin-7-yl)methyl)-3-methylpyridin-2-yl)piperazin-1-yl)-3-methylpentan-1-one], 336 nM.

`CCCCOc1nc(N)c2ncc(Cc3cnc(N4CCN(C(=O)[C@@H]5CCCN5)CC4)c(C)c3)n2n1` [Compound B68, (S)-4-amino-2-butoxy-7-((5-methyl-6-(4-prolylpiperazin-1-yl)pyridin-3-yl)methyl)imidazo[2,1-f][1,2,4]triazine] returned an EC50 of 106 nM.

`CCCCOc1nc(N)c2ncc(Cc3cnc(N4CCN(C(=O)[C@@H](N)CC(C)C)CC4)c(C)c3)n2n1` [Compound B69, (S)-2-amino-1-(4-(5-((4-amino-2-butoxyimidazo[2,1-f][1,2,4]triazin-7-yl)methyl)-3-methylpyridin-2-yl)piperazin-1-yl)-4-methylpentan-1-one]: the response was half-maximal at 313 nM (EC50). This EC50 lies about 3-fold higher than the previous one. With `CCCCOc1nc(N)c2ncc(Cc3cnc(N4CCN(C(=O)[C@@H](N)C(C)C)CC4)c(C)c3)n2n1` [Compound B70, (S)-2-amino-1-(4-(5-((4-amino-2-butoxyimidazo[2,1-f][1,2,4]triazin-7-yl)methyl)-3-methylpyridin-2-yl)piperazin-1-yl)-3-methylbutan-1-one] the figure was 212 nM.

In turn, `CCCCNc1nc(N)c2ncc(Cc3cnc(N4CCN(C(=O)CN(C)C)CC4)c(C)c3)n2n1` [Compound B71, 1-(4-(5-((4-amino-2-(butylamino)imidazo[2,1-f][1,2,4]triazin-7-yl)methyl)-3-methylpyridin-2-yl)piperazin-1-yl)-2-(dimethylamino)ethan-1-one] yielded an EC50 of 31 nM. As to `CCCCOc1nc(N)c2ncc(Cc3cnc(N4CCN(CC(=O)N(C)C)CC4)c(C)c3)n2n1` [Compound B72, 2-(4-(5-((4-amino-2-butoxyimidazo[2,1-f][1,2,4]triazin-7-yl)methyl)-3-methylpyridin-2-yl)piperazin-1-yl)-N,N-dimethylacetamide], the response was half-maximal at 493 nM (EC50). This EC50 is about 16-fold higher than that of the compound before.

On to `CCCCOc1nc(N)c2ncc(Cc3cnc(N4CCNC[C@@H]4C)c(C)c3)n2n1` [Compound B73, (S)-2-butoxy-7-((5-methyl-6-(2-methylpiperazin-1-yl)pyridine-3-yl)methyl)imidazo[2,1-f][1,2,4]triazin-4-amine], for which a half-maximal effect (EC50) was put at 532 nM. The compound `CCCCOc1nc(N)c2ncc(Cc3cnc(N4CCNC[C@H]4C)c(C)c3)n2n1` [Compound B74, (R)-2-butoxy-7-((5-methyl-6-(2-methylpiperazin-1-yl)pyridin-3-yl)methyl)imidazo[2,1-f][1,2,4]triazin-4-amine] returned an EC50 of 73 nM. Under `CCCCOc1nc(N)c2ncc(Cc3cnc(N4CCN(CCNC)CC4)c(C)c3)n2n1` [Compound B75, 2-butoxy-7-((5-methyl-6-(4-(2-(methylamino)ethyl)piperazin-1-yl)pyridin-3-yl)methyl)imidazo[2,1-f][1,2,4]triazin-4-amine] stands 121 nM; under `CCCCOc1nc(N)c2ncc(Cc3cnc(N4CCN(CCN(C)C)CC4)c(C)c3)n2n1` [Compound B76, 2-butoxy-7-((6-(4-(2-(dimethylamino)ethyl)piperazin-1-yl)-5-methylpyridin-3-yl)methyl)imidazo[2,1-f][1,2,4]triazin-4-amine], 94 nM; under `CCCCOc1nc(N)c2ncc(Cc3cnc(N4CCC(N(C)C)CC4)c(C)c3)n2n1` [Compound B78, 2-butoxy-7-((6-(4-(dimethylamino)piperidin-1-yl)-5-methylpyridin-3-yl)methyl)imidazo[2,1-f][1,2,4]triazin-4-amine], 47 nM. In turn, `CCCCOc1nc(N)c2ncc(Cc3cnc(N4C[C@H]5C[C@@H]4CN5)c(C)c3)n2n1` [Compound B79, 7-((6-((1R,4R)-2,5-diazabicyclo[2.2.1]heptan-2-yl)-5-methylpyridin-3-yl)methyl)-2-butoxyimidazo[2,1-f][1,2,4]triazin-4-amine] displayed an EC50 of 505 nM. With `C=CCCOc1nc(N)c2ncc(Cc3cnc(N4CCNCC4)c(C)c3)n2n1` [Compound B80, 2-(but-3-en-1-yloxy)-7-((5-methyl-6-(piperazin-1-yl)pyridin-3-yl)methyl)imidazo[2,1-f][1,2,4]triazin-4-amine] the figure was 242 nM; with `CCCCOc1nc(N)c2ncc(Cc3cnc(N4CCN(C(=O)[C@@H](N)Cc5ccccc5)CC4)c(C)c3)n2n1` [Compound B81, (S)-2-amino-1-(4-(5-((4-amino-2-butoxyimidazo[2,1-f][1,2,4]triazin-7-yl)methyl)-3-methylpyridin-2-yl)piperazin-1-yl)-3-phenylpropan-1-one], 4440 nM. With `CCCCOc1nc(N)c2ncc(Cc3cnc(N4CCC5(CCNC5)CC4)c(C)c3)n2n1` [Compound B82, 2-butoxy-7-((5-methyl-6-(2,8-diazaspiro[4.5]decan-8-yl)pyridin-3-yl)methyl)imidazo[2,1-f][1,2,4]triazin-4-amine] the figure was 431 nM; with `CCCCOc1nc(N)c2ncc(Cc3cnc(N4CCC5(CCCC5)CC4)c(C)c3)n2n1` [Compound B83, 2-butoxy-7-((5-methyl-6-(8-azaspiro[4.5]decan-8-yl)pyridin-3-yl)methyl)imidazo[2,1-f][1,2,4]triazin-4-amine], more than 10000 nM. As for `Cc1cc(Cc2cnc3c(N)nc(NCCC(C)C)nn23)cnc1N1CCNCC1` [Compound B85, N^2-isopentyl-7-((5-methyl-6-(piperazin-1-yl)pyridin-3-yl)methyl)imidazo[2,1-f][1,2,4]triazine-2,4-diamine], the EC50 came to 1360 nM. This counts as single-digit micromolar. With `CCCCOc1nc(N)c2ncc(Cc3cnc(N4CCC(N(C)C)C4)c(C)c3)n2n1` (centres unmarked) [Compound B87, 2-butoxy-7-((6-(3-(dimethylamino)pyrrolidin-1-yl)-5-methylpyridin-3-yl)methyl)imidazo[2,1-f][1,2,4]triazin-4-amine] the figure was 435 nM.
